Earlier results on one compound are cited in US20190150439A1, “SOLUBLE LIQUID FORMULATIONS OF QUINCLORAC AMMONIUM SALTS” (BASF SE, priority 2012, published 2019).

Each structure is given as a SMILES string.

The conditions of this series: pH 7 at 20° C.

As for `O=C(O)c1c(Cl)ccc2cc(Cl)cnc12` [Quinclorac, 3,7-dichloro-8-quinolinecarboxylic acid], the solubility in water is on record as 0.065 mg/kg.
